The values below come from patent publication US6589966B1, “Cytotoxic metal chelators and methods for making and using same” (Wake Forest University Health Sciences, priority 1998, dated 2003).

Data set [1] relates to mouse (MBT2) bladder cancer cells. In words: MTT dye reduction cell viability assay on MBT2 cells. The class given is cell-based. As to the method:
(§1) The cytotoxic effects of tachpyr on mouse (MBT2) and human (T24) bladder cancer cells were evaluated in vitro, and compared to normal human fibroblasts (MRC-5). MBT2 cells were provided by Dr. L. Lattime (Thomas Jefferson University, Philadelphia, Pa.), while MRC-5 cells were a gift of H. Blau (Standford University, Standford, Calif.). T24 cells were obtained from ATTC (Rockville, Md.). Cells were grown in RPMI (MBT2) or DME medium (T24 and MRC-5) containing 10% fetal bovine serum in a humidified chamber containing 5% CO2. 5×10^3 cells were plated into 96-well tissue culture dishes, and permitted to attach overnight. Test compounds were then added, with six replicate cultures used for each point.
After 72 hours, cell viability was assessed using an MTT dye reduction assay [Mosmann, T., J. Immunol. Meth. 65:55 (1983)]. The MTT assay is widely used to measure drug effects on cell viability. [see Richardson, D., Blood 86:4295 (1995); Brüggerman, S., Cancer Res. 57:2676 (1997); and Silber, R., Blood 84:3440 (1994)]. Specifically, (3-(4,5-dimethylthiazol-2-yl)-2,5-diphenyl tetraxolium bromide was added to the medium, and the formation of a reduced product was assayed by measuring the optical density at 560/650 nm after 3 hours. Color formation was considered proportional to viable cell numbers. IC50 was defined as the concentration required to inhibit viability by 50%, and was calculated using the Multiple Drug-effect Analysis Program (Biosoft).
MBT2 cells were then incubated with 150 μM (dfo) or 25 μM tachpyr for various lengths of time, and survival was then measured using the MTT assay described above. Viability at time 0 was defined as 100%. […] Rather, cytotoxicity was delayed by approximately 24 hours, paralleling the cytotoxic time course of desferioxamine.
The metal complexes of tachpyr were prepared as disclosed in Example 3, and their effects on MBT2 cells were compared to those of tachpyr after 72 hours using the MTT assay referenced in Example 8.
A general note: Tetrazolium assays rely on reduction of a dye to a coloured formazan, in cell work by metabolically active cells.

Data set [2] deals with tumor cells. To be noted: background statement; cited from earlier work.
The conditions of data set [3]: Richardson, D., Blood 86:4295 (1995); cited from earlier work.
A further data set has as its system cell culture. As to the kind of experiment: Preliminary cell culture experiments comparing toxicity of tachpyr with tachpn. The data set is classed as cell-based. An excerpt: In order to further explore the hypothesis that oxidative dehydrogenation is involved in chelator toxicity, the tach-based chelator with three N-propyleneamino arms (termed tachpn, Scheme 4 as shown in FIG. 3) has been studied. Tachpn is distinguished from tachpyr in having the —C(H)(CH3)(NH2) fragment in place of the pyridine ring. The α-hydrogens of tachpn are sterically hindered, relative to tachpyr, by the methyl group in the β position, so that tachpn may have a lower propensity toward α-hydrogen abstraction. Further, the pseudo-benzylic H^a of tachpyr would also have a potentially greater tendency to be abstracted, as compared to tachpn, on electronic grounds [see March, J., Advanced Organic Chemistry. McGraw-Hill, pp 914 ff) The considerations would imply that tachpn is less able than tachpyr to undergo oxidative dehydrogenation and to reduce Fe(III). Preliminary cell culture experiments were conducted to compare the toxicity of tachpyr with tachpn (FIG. 3).

Data set [4] has as its system tumor cells.
The next data set concerns breast cancer cell lines. As to the kind of experiment: Cytotoxicity to breast cancer cell lines. The class given is cell-based.
Another data set deals with RAW 264.7 cells. In words: Apoptosis: DNA fragmentation by agarose gel electrophoresis. The class given is cell-based. To be noted: 25 μM, 0, 6, 12 and 20 hours. An excerpt:
Apoptosis, or “programmed cell death,” is a process initiated by many anti-cancer agents. Pathways of apoptosis involve complex intracellular changes, including the action of intracellular proteases (caspases), release of cytochrome C, mitochondrial changes, nuclear condensation and fragmentation, and ultimately cell death. A hallmark of apoptotic cell death is the appearance of “DNA ladders”: DNA cleaved at […] regions to generate a series of DNA fragments that can be visualized using agarose gel electrophoresis. In order to determine whether tachpyr triggers apoptotic pathways, DNA was isolated from RAW 264.7 cells that had been treated with 25 μM tachpyr for 0, 6, 12 and 20 hours. DNA was also isolated from cells treated for 7 hours with 50 μM cisplatin or 500 μM etoposide (VP16). Cisplatin and etoposide are DNA damaging agents that are currently used in cancer therapy and are known to induce apoptosis. They served as positive controls. We compared the effects of tachpyr, VP16 and cisplatin on DNA fragmentation using agarose gel electrophoresis. […] Thus, cytotoxic pathways elicited by tachpyr are similar to those evoked by classic anti-cancer agents, and are consistent with its contemplated use as a chemotherapeutic agent.

The subject of data set [5] is human (T24) bladder cancer cells. As to the kind of experiment: MTT dye reduction cell viability assay on T24 cells. The data set is classed as cell-based. To be noted: cell type T24, 72 hours, read-out: IC50(μM) of Tachpyr. As to the method: as §1
(§2) After 72 hours, cell viability was assessed using an MTT dye reduction assay [Mosmann, T., J. Immunol. Meth. 65:55 (1983)]. The MTT assay is widely used to measure drug effects on cell viability. [see Richardson, D., Blood 86:4295 (1995); Brüggerman, S., Cancer Res. 57:2676 (1997); and Silber, R., Blood 84:3440 (1994)]. […]

The subject of data set [6] is normal human fibroblasts (MRC-5). In words: MTT dye reduction cell viability assay on MRC-5 cells. The class given is cell-based. The settings on record: cell type MRC-5, 72 hours, read-out: IC50(μM) of Tachpyr. The procedure: as §1, §2
A further data set has as its system ferritin synthesis. In words: Ferritin synthesis (35S labeling, immunoprecipitation, SDS PAGE). To be noted: 20 μM tachpyr, 16 hours. The data set is classed as cell-based. As to the method: Ferritin is a major iron storage protein whose synthesis is dependent upon intracellular concentrations of iron. To examine the role of tachpyr in the chelation of intracellular iron, the influence of tachpyr on ferritin synthesis was examined. Cells were exposed for either 7 or 16 hours to media containing either no additions, 20 μM tachpyr, 150 μM desferioxamine or 200 μM ferric nitrolotriacetate. During the last two hours of incubation, cells were metabolically labeled with S-translabel (ICN) and ferritin visualized by immunoprecipitation and SDS PAGE [Torti, S. et al.,J. Biol. Chem. 263:12638 (1988).]

In data set [7] the test system is MBT2 or T24 cultured bladder cancer cells. As to the kind of experiment: Cytotoxicity toward cultured bladder tumor cells. The data set is classed as cell-based. To be noted: cultured human and mouse bladder tumor cells. The procedure: as §1, §2
The next data set deals with MBT2 cells. In words: Clonogenic assay. The class given is cell-based, mouse. The settings on record: 72 hours with tachpyr, colonies grown seven days. The procedure:
Cell viability was also-assessed using a clonogenic assay, which measures the ability of cells to divide and form visible colonies of about 50 or more cells. Replicate plates were exposed to various concentrations of tachpyr added to the growth medium. Control cells received no tachpyr. At the end of the incubation period, the surviving cells were trypsinized, diluted, and re-plated in growth medium without tachpyr. Colonies were permitted to grow for seven days. The growth medium was then removed, and plates were fixed with 0.5% gluteraldehyde, stained with 1% crystal violet, and then counted.

Like-named read-outs stand apart in the source and are kept apart here.

In general, IC50 refers to the concentration needed to halve the response being measured.

As to `[Cl-].[Cl-].[Cu+2].c1ccc(CNC2CC(NCc3ccccn3)CC(NCc3ccccn3)C2)nc1` (centres unmarked) [CU(II) complex of tachpyr], in data set [1] (MBT2 cells, 72 hours, MTT), the “cytotoxicity (in words)” value is reported as “not toxic”.
For `[Ca+2].[Cl-].[Cl-].c1ccc(CNC2CC(NCc3ccccn3)CC(NCc3ccccn3)C2)nc1` (centres unmarked) [Ca(II) complex of tachpyr], the “cytotoxicity (in words)” value in data set [1] (MBT2 cells, 72 hours, MTT) was “toxic”.
On the same count and under the same terms, as for `[Cl-].[Cl-].[Mg+2].c1ccc(CNC2CC(NCc3ccccn3)CC(NCc3ccccn3)C2)nc1` (centres unmarked) [MG(II) complex of tachpyr], the entry is “toxic”.
`[Mn+2].[O-][Cl+3]([O-])([O-])[O-].[O-][Cl+3]([O-])([O-])[O-].c1ccc(CNC2CC(NCc3ccccn3)CC(NCc3ccccn3)C2)nc1` (centres unmarked) [MN(II) complex of tachpyr]: in [1] (MBT2 cells, 72 hours, MTT), the “cytotoxicity (in words)” value is given as “toxic”.
The same measure, in the same setting: under `[O-][Cl+3]([O-])([O-])[O-].[O-][Cl+3]([O-])([O-])[O-].[Zn+2].c1ccc(CNC2CC(NCc3ccccn3)CC(NCc3ccccn3)C2)nc1` (centres unmarked) [Zn(II) complex of tachpyr] stands “not toxic”.
In the case of `c1ccc(-c2ccccn2)nc1` [bipy], in the data set with tumor cells [2], the “cytotoxic effects on tumor cells (in words)” value is reported as “only weak cytotoxic effects”.
Regarding `CC(=O)N(O)CCCCCNC(=O)CCC(=O)N(O)CCCCCNC(=O)CCC(=O)N(O)CCCCCN` [desferrioxamine, reference compound], the IC50 in data set [3] is 70 µM; in [1] (Mus musculus, MBT2 cells, 72 hours, MTT, single experiment of FIG. 8, read-out: calculated IC50 from FIG. 8 data), 70 µM; in data set [1] (Mus musculus, MBT2 cells, 72 hours, MTT, tachpyr: average of four independent experiments ± standard error, read-out: IC50) it was 70 µM. Besides, the “cytotoxicity (in words)” value in data set [1] (MBT2 cells, 72 hours, MTT) was “cytotoxic”.
Turning to `CC(N)CNC1CC(NCC(C)N)CC(NCC(C)N)C1` (centres unmarked) [tachpn], the IC50 in the data set with cell culture (preliminary cell culture experiments, cell line not stated) is around 80 µM. In addition, in the data set with cell culture (ratio of IC50 values), the “decrease in toxicity relative to tachpyr” value was 17 fold.
For the compound `C(=NC1CC(N=Cc2ccccn2)CC(N=Cc2ccccn2)C1)c1ccccn1` (stereo not drawn) [tachpyr-3H2, cis,cis-1,3,5-tris(pyridine-2-carboxaldimino)cyclohexane], the “cytotoxicity (in words)” value with tumor cells [4] is listed as “no cytotoxicity”.
Regarding `c1ccc(CNC2CC(NCc3ccccn3)CC(NCc3ccccn3)C2)nc1` (centres unmarked) [tachpyr], the “cytotoxicity (in words)” value was “cytotoxic” with breast cancer cell lines and “cytotoxic” in [1] (MBT2 cells, 72 hours, MTT). In the data set with RAW 264.7 cells, the “DNA fragmentation (DNA ladders)” value was “clearly induced DNA fragmentation”. The IC50 in [5] is 4.3 µM; in data set [6], 30.5 µM; in [1] (MBT2 cells, 72 hours, MTT, single experiment of FIG. 8, read-out: calculated IC50 from FIG. 8 data), 3.6 µM; in data set [1] (MBT2 cells, 72 hours, MTT, tachpyr: average of four independent experiments ± standard error, read-out: IC50), 4.6 ± 2 µM; in data set [1] (Table I, cell type MBT2, read-out: IC50(μM) of Tachpyr) it was 2.2 µM. Also, the ferritin synthesis result with ferritin synthesis is given as “repressed”. Further, the delay of cytotoxicity result in data set [1] (MBT2 cells, 25 μM tachpyr, time course, MTT) is “approximately 24 hours”. For the same compound, the “toxicity (in words)” value in [7] is given as “extremely toxic”. In addition, the colony formation result in the data set on MBT2 cells is on record as “inhibited colony formation”.
On to “[Fe(tachpyr)]Cl2 [FE(II) complex of tachpyr]”, for which the “cytotoxicity (in words)” value in data set [1] (MBT2 cells, 72 hours, MTT) is on record as “not toxic”.
